From patent US9023857B2, “Substituted 6-(2-aminobenzylamino)purine derivatives, their use as medicaments and preparations containing these compounds” (Univerzita Palackeho V Olomouci, priority 2009, dated 2015)

Columns and labels:
[1] = system: pRb (Ser780, Ser807, Thr821) in MCF7 cells; experiment: Immunoblot analysis of pRb phosphorylation in MCF7 cells; type: cell-based, human; conditions: MCF7 cells treated for 24 h, immunoblot (FIG. 2)
Method: Cell were detached with rubber policeman and washed three times with ice-cold PBS and lysed in buffer (50 mM Tris, pH 7.4, 250 mM NaCl, 5 mM EDTA, 50 mM NaF, 1 mM Na3VO4, 1% Nonidet P40) containing mixture of protease and phosphatase inhibitors (Sigma-Aldrich St Louis, Mo., USA). 20 μg of total proteins were separated by SDS-polyacrylamide gel electrophoresis (SDS-PAGE) on 8% or 10% gels and transferred onto nitrocellulose membranes. Membranes were blocked in 5% milk and 0.1% Tween 20 in PBS and probed overnight with specific monoclonal antibodies or rabbit polyclonal sera. Primary antibodies specific for RNA polymerase II (all from Santa Cruz Biotechnology, California, USA) included: (i) N-20 used at 1 μg/ml, (ii) H14, specific for form phosphorylated at phosphoserine 5, used at 6 μg/ml and (iii) H5, specific for form phosphorylated at phosphoserine 2 used at 4 μg/ml. Additional primary mAb used in immunblots included (iv) anti-p53 (DO-1, in house) used at 1 μg/ml, (v) anti-p21^WAF1 (118, in house), used at 1 μg/ml), (vi) anti-actin (A-2066, Sigma-Aldrich St Louis, Mo., USA) used at 1 μg/ml, (vii) anti-T-antigen (419, in house), used at 1 μg/ml. All primary antibodies were diluted in PBS containing 5% powdered milk; 0.1% Tween 20. […]

[2] = system: p53-responsive reporter pRGCΔfoslacZ in murine fibroblasts T22lacZ; experiment: p53-dependent transcriptional activity, β-galactosidase reporter in T22lacZ cells; type: cell-based; conditions: 5 μM
[3] = system: p53 protein in MCF-7 cells expressing wild-type p53; experiment: Induction of p53 protein in MCF-7 cells (immunoblotting); type: cell-based, human
Method: (§1) (a) DO-1, DO-2 and 1801 monoclonal antibodies recognise the N-terminal region of p53 protein, monoclonal antibodies DO-11 and DO-12 recognise different epitopes in the core domain of p53 protein, monoclonal antibodies Bp53-10 and Pab421 recognise the C-terminal region of p53 protein. (b) Monoclonal antibody 118 recognises p21^WAF1.
For direct immunoblotting, total cellular protein lysates were prepared by harvesting cells in hot Laemmli electrophoresis sample buffer. Proteins were then separated by SDS-polyacrylamide gel electrophoresis (SDS-PAGE) on 10% gel and transferred onto a nitrocellulose membrane in Bio.Rad Mini Trans-Blott Electrophoretic Transfer Cell for 2 hrs at 4° C. applying 150 mA in transfer buffer ([…], 190 mM glycine and 20% methanol). Prestained molecular weight markers (Bio-Rad) were run in parallel. The blotted membranes were blocked in 5% milk and 0.1% Tween 20 in PBS for 2 hrs and probed overnight with monoclonal antibodies. After washing 3 times in PBS plus 0.1% Tween 20, peroxidase conjugated rabbit anti-mouse immunoglobulin antiserum (Dako, Denmark) diluted 1:1000 was used as the secondary antibody. To visualise peroxidase activity, ECL reagents from […] were used according to the manufacturer instructions.
First, we determined appropriate concentration of 103 and 105 for our experiments. The MCF-7 (wt p53) cells were treated for 12 hrs with increasing concentrations of 105 ranging from 1 to 100 μM and analysed for p53 protein expression using monoclonal antibody DO-1 (FIG. 3A). […] As shown at FIG. 3C the level of protein expression induced by 5 μM 105 was not substantially different from expression induced by 50 μM concentration was selected for further experiments. Second, the periods of time 6, 12 and 24 hrs were chosen, since the level of protein expression reached a steady state. We analysed the expression of p53 protein in MCF-7 (wt p53), BT549 (mut p53) and BT474 (mut p53) breast cancer cell lines, in HT29 (mut p53) colorectal cancer cell line and in ostaosarcoma cell line HOS (mut p53). […] No induction of p53 was observed following exposure of BT549 and HOS cell lines, expressing mutant p53, to 5 μM 105 for 6, 12 and 24 hrs. No correlation was observed between the sensitivity of cell lines to 105 and the presence of wild-type or mutant p53.

[4] = system: p53 protein in BT549 (mut p53) breast cancer cell line; experiment: p53 protein expression in BT549 cells (immunoblotting); type: cell-based, human; conditions: BT549 (mutant p53), 5 μM, 6, 12 and 24 hrs
Method: as §1
(§2) For direct immunoblotting, total cellular protein lysates were prepared by harvesting cells in hot Laemmli electrophoresis sample buffer. Proteins were then separated by SDS-polyacrylamide gel electrophoresis (SDS-PAGE) on 10% gel and transferred onto a nitrocellulose membrane in Bio.Rad Mini Trans-Blott Electrophoretic Transfer Cell for 2 hrs at 4° C. applying 150 mA in transfer buffer ([…], 190 mM glycine and 20% methanol). Prestained molecular weight markers (Bio-Rad) were run in parallel. […]
(§3) First, we determined appropriate concentration of 103 and 105 for our experiments. The MCF-7 (wt p53) cells were treated for 12 hrs with increasing concentrations of 105 ranging from 1 to 100 μM and analysed for p53 protein expression using monoclonal antibody DO-1 (FIG. 3A). […] We analysed the expression of p53 protein in MCF-7 (wt p53), BT549 (mut p53) and BT474 (mut p53) breast cancer cell lines, in HT29 (mut p53) colorectal cancer cell line and in ostaosarcoma cell line HOS (mut p53). […]

[5] = system: p53 protein in osteosarcoma cell line HOS (mut p53); experiment: p53 protein expression in HOS cells (immunoblotting); type: cell-based, human; conditions: HOS (mutant p53), 5 μM, 6, 12 and 24 hrs
Method: as §1, §2, §3

HSV-2 = experiment: Plaque number reduction assay, HSV-2 on HFFF; type: cell-based, HSV-2 strain HG52
HAd4 = HAd4 yield reduction assay (multiple step growth curve) in A549 cells; conditions: culture medium; combination: until 72 hours after infection

CCC(CO)Nc1nc(NCc2ccccc2N)c2ncn(C(C)C)c2n1 (stereo not shown) [Compound 105, 2-({6-[(2-aminobenzyl)amino]-9-isopropyl-9H-purin-2-yl}amino)butan-1-ol]
phosphorylation of pRb at Ser780, Ser807 and Thr821 [1]: Reduced phosphorylation | blue-coloured cells (β-galactosidase activity, X-gal substrate) [2]: about 25% | tumor suppressor p53 level ([3]; MCF7 cells treated for 24 h, immunoblot (FIG. 2)): Induction | concentration shown to affect the level of p53 protein ([3]; MCF-7 (wt p53), 12 hrs, antibody DO-1): 2 to 5 µM | accumulation of wild-type p53 ([3]; MCF-7, 5 μM, 6, 12 and 24 hrs): significant accumulation | time at which induction of p53 protein was apparent ([3]; MCF-7 cells): 4 h | induction of p53 [4]: No induction | induction of p53 [5]: No induction | inhibition of virus replication (in words) (HSV-2): inhibited replication | appearance of extracellular virus (HAd4): considerably delayed
